From patent publication US12054494B2, “Compound with anticancer activity” (KYOWA KIRIN CO., LTD., priority 2018, dated 2024)

test system: SU-DHL-4 cells; test: Inhibitory effect on cell viability (Cell Counting Kit-8); type: cell-based; conditions: Homo sapiens, 72 hours culture with test compound, concentration showing 90% inhibition rate of cell viability
Protocol: Inhibitiory Effect on Cell Viability
SU-DHL-4 cells (Code No. ACC 495, Deutsche Sammlung von Mikroorganismen and Zellkulturen GmbH) were cultured at 37° C. using a carbon dioxide incubator (95% air, 5% CO2) in RPMI1640 medium (Code No. 11875-093, Thermo Fisher Scientific) in which inactivated fetal bovine serum (FBS: Code No. 10099-148, Thermo Fisher Scientific) in an amount to give a final concentration of 10 vol % and penicillin/streptomycin solution (PS: Code No. 15140-122, Thermo Fisher Scientific) in an amount to give a final concentration of 1 vol % were added. The cells were passaged twice a week at a volume of 20-40 mL so as to maintain a cell concentration of 1×10^6 cells/mL or less.
The cultured SU-DHL-4 cells were seeded at 2000 cells/well in a transparent 384-well plate (Code No. 781182, Greiner bio-one). After seeding, the cells were precultured at 37° C. in a carbon dioxide gas incubator for 18 to 25 hours. Next, 1, 0.1 or 0.01 mmol/L DMSO solution of the test compound was prepared and a 9-step dilution series were prepared so that the concentration will be 200 times the final concentration in the RPMI1640 medium containing the above FBS and PS, and 1/200 volume of the dilution series were added to each well. At this time, the final concentration of DMSO was adjusted to be 0.1 vol %. After adding the test compound, the cells were cultured at 37° C. in a carbon dioxide gas incubator for 72 hours. Next, 0.020 mL of Cell Counting Kit-8 (Code No. CK04, DOJINDO) solution diluted 2-fold or 4-fold with phosphate buffered saline (PBS) was added to each well. Color reaction was carried out in a carbon dioxide gas incubator at 37° C. for 2 to 3 hours, and the absorbance at a wavelength of 450 nm was measured using SpectraMax 340PC (Molecular Devices). The inhibition rate of cell viability was calculated by the following formula, and the concentration of the test compound (IC90 value) showing a 90% inhibition rate of cell viability was calculated. Inhibition rate of cell viability (%)=100−(A−B)/(C−B)×100 • A: Absorbance of a well containing test compound • B: Absorbance of a well without addition of cells • C: Absorbance of a well without addition of test compound

| IC90 | Structure (SMILES) |
| --- | --- |
| 0.23 nM | CCC(=O)N1c2ccccc2[C@H](Nc2ccc(NC(=O)CCNC(=O)c3ccc(N[C@@H]4C[C@H](C)N(C(=O)CC)c5ccccc54)cc3)cc2)C[C@@H]1C (relative stereo) [Compound 2f, 4-{[(2S,4R)-2-Methyl-1-propionyl-1,2,3,4-tetrahydroquinolin-4-yl]amino}-N-{3-[(4-{[(2S*,4R*)-2-methyl-1-propionyl-1,2,3,4-tetra hydroquinolin-4-yl]amino}phenyl)amino]-3-oxopropyl}benzamide] |
| 1.07 nM | CCC(=O)N1c2ccccc2[C@H](Nc2ccc(-c3nnc(CNC(=O)c4ccc(Cn5c(C(=O)OCCN(C)C)cc6c5CCCC6=O)cc4)o3)cc2)C[C@@H]1C [Compound 15b, 2-(Dimethylamino)ethyl 1-(4-(((5-(4-(((2S,4R)-2-methyl-1-propionyl-1,2,3,4-tetrahydroquinolin-4-yl)amino)phenyl)-1,3,4-oxadiazol-2-yl)methyl)carbamoyl)benzyl)-4-oxo-4,5,6,7-tetrahydro-1H-indole-2-carboxylate] |
| 1.78 nM | Cc1sc2c(c1C)C(c1ccc(C(=O)NCCCNC(=O)c3ccc(C4=N[C@@H](CC(=O)OC(C)(C)C)c5nnc(C)n5-c5sc(C)c(C)c54)cc3)cc1)=N[C@@H](CC(=O)OC(C)(C)C)c1nnc(C)n1-2 [Compound 1b, Di-tert-butyl 2,2′-[(6S,6′S)-({[propane-1,3-diylbis(azanediyl)]bis(carbonyl)}bis(4,1-phenylene))bis(2,3,9-trimethyl-6H-thieno[3,2-f][1,2,4]triazolo[4,3-a][1,4]diazepine-4,6-diyl)]diacetate] |
| 1.27 nM | Cc1sc2c(c1C)C(c1ccc(C(=O)N3CCC(NC(=O)c4ccc(C5=N[C@@H](CC(=O)OC(C)(C)C)c6nnc(C)n6-c6sc(C)c(C)c65)cc4)CC3)cc1)=NCc1nnc(C)n1-2 [Compound 14p, tert-Butyl (S)-2-(2,3,9-trimethyl-4-(4-((1-(4-(2,3,9-trimethyl-6H-thieno[3,2-f][1,2,4]triazolo[4,3-a][1,4]diazepin-4-yl)benzoyl)piperidin-4-yl)carbamoyl)phenyl)-6H-thieno[3,2-f][1,2,4]triazolo[4,3-a][1,4]diazepin-6-yl)acetate] |
| 0.11 nM | CCC(=O)N1c2ccccc2[C@H](Nc2ccc(C(=O)NCc3nnc(-c4ccc(N[C@@H]5C[C@H](C)N(C(=O)CC)c6ccccc65)cc4)o3)cc2)C[C@@H]1C [Compound 3c, 4-{[(2S,4R)-2-Methyl-1-propionyl-1,2,3,4-tetrahydroquinolin-4-yl]amino}-N-{[5-(4-{[(2S,4R)-2-methyl-1-propionyl-1,2,3,4-tetrahydroquinolin-4-yl]amino}phenyl)-1,3,4-oxadiazol-2-yl]methyl}benzamide] |
| 0.45 nM | CCC(=O)N1c2ccccc2[C@H](Nc2ccc(C(=O)NCCn3cc(-c4ccc(N[C@@H]5C[C@H](C)N(C(=O)CC)c6ccccc65)cc4)cn3)cc2)C[C@@H]1C [Compound 6q, 4-(((2S,4R)-2-Methyl-1-propionyl-1,2,3,4-tetrahydroquinolin-4-yl)amino)-N-(2-(4-(4-(((2S,4R)-2-methyl-1-propionyl-1,2,3,4-tetrahydroquinolin-4-yl)amino)phenyl)-1H-pyrazol-1-yl)ethyl)benzamide] |
| 0.52 nM | CCC(=O)N1c2ccccc2[C@H](Nc2ccc(NC(=O)CNC(=O)C=C3CCC(N[C@@H]4C[C@H](C)N(C(=O)CC)c5ccccc54)CC3)cc2)C[C@@H]1C (relative stereo) [Compound 15j, 2-(4-(((2S*,4R*)-2-Methyl-1-propionyl-1,2,3,4-tetrahydroquinolin-4-yl)amino)cyclohexylidene)-N-(2-((4-(((2S,4R)-2-methyl-1-propionyl-1,2,3,4-tetrahydroquinolin-4-yl)amino)phenyl)amino)-2-oxoethyl)acetamide] |
| 7.48 nM | CCC(=O)N1c2ccccc2[C@H](Nc2ccc(NC(=O)CN3CC=C(c4ccc(N[C@@H]5C[C@H](C)N(C(=O)CC)c6ccccc65)cc4)CC3)cc2)C[C@@H]1C [Compound 5k, N-(4-(((2S,4R)-2-Methyl-1-propionyl-1,2,3,4-tetrahydroquinolin-4-yl)amino)phenyl)-2-(4-(4-(((2S,4R)-2-methyl-1-propionyl-1,2,3,4-tetrahydroquinolin-4-yl)amino)phenyl)-3,6-dihydropyridin-1(2H)-yl)acetamide] |
| 63.6 nM | CCC(=O)N1c2ccccc2[C@H](Nc2ccc(Cc3cnc4n3CCN(Cc3ccc(N[C@@H]5C[C@H](C)N(C(=O)CC)c6ccccc65)cc3)C4)cc2)C[C@@H]1C [Compound 5c, 1,1′-((2S,2′S,4R,4′R)-((((5,6-Dihydroimidazo[1,2-a]pyrazine-3,7(8H)-diyl)bis(methylene))bis(4,1-phenylene))bis(azanediyl))bis(2-methyl-3,4-dihydroquinoline-4,1(2H)-diyl))bis(propan-1-one)] |

More lines, now with the values behind:

| Structure (SMILES) | IC90 |
| --- | --- |
| CCC(=O)N1c2ccccc2[C@H](Nc2ccc(C(=O)NCCc3cn(-c4ccc(N[C@@H]5C[C@H](C)N(C(=O)CC)c6ccccc65)cc4)nn3)cc2)C[C@@H]1C [Compound 6c, 4-(((2S,4R)-2-Methyl-1-propionyl-1,2,3,4-tetrahydroquinolin-4-yl)amino)-N-(2-(1-(4-(((2S,4R)-2-methyl-1-propionyl-1,2,3,4-tetrahydroquinolin-4-yl)amino)phenyl)-1H-1,2,3-triazol-4-yl)ethyl)benzamide] | 0.83 nM |
| CCC(=O)N1c2ccccc2[C@H](Nc2ccc(-n3cc(CCNC(=O)c4ccc(Cn5c(C(=O)OCCN(C)C)cc6c5CCCC6=O)cc4)nn3)cc2)C[C@@H]1C [Compound 15c, 2-(Dimethylamino)ethyl 1-(4-((2-(1-(4-(((2S,4R)-2-methyl-1-propionyl-1,2,3,4-tetrahydroquinolin-4-yl)amino)phenyl)-1H-1,2,3-triazol-4-yl)ethyl)carbamoyl)benzyl)-4-oxo-4,5,6,7-tetrahydro-1H-indole-2-carboxylate] | 0.3 nM |
| CCC(=O)N1c2ccccc2[C@H](Nc2ccc(C(=O)N3CCn4cc(-c5ccc(N[C@@H]6C[C@H](C)N(C(=O)CC)c7ccccc76)cc5)nc4C3)cc2)C[C@@H]1C [Compound 3f, 1-[(2S,4R)-2-Methyl-4-({4-[2-(4-{[(2S,4R)-2-methyl-1-propionyl-1,2,3,4-tetrahydroquinolin-4-yl]amino}phenyl)-5,6,7,8-tetrahydroimidazo[1,2-a]pyrazine-7-carbonyl]phenyl}amino)-3,4-dihydroquinolin-1(2H)-yl]propan-1-one] | 0.33 nM |
| CCC(=O)N1c2ccccc2[C@H](Nc2ccc(NC(=O)C3CN(C(=O)N4CCC(N[C@@H]5C[C@H](C)N(C(=O)CC)c6ccccc65)CC4)C3)cc2)C[C@@H]1C (relative stereo) [Compound 10e, N-(4-(((2S*,4R*)-2-Methyl-1-propionyl-1,2,3,4-tetrahydroquinolin-4-yl)amino)phenyl)-1-(4-(((2S,4R)-2-methyl-1-propionyl-1,2,3,4-tetrahydroquinolin-4-yl)amino)piperidine-1-carbonyl)azetidine-3-carboxamide] | 3.59 nM |
| CCC(=O)N1c2ccccc2[C@H](Nc2ccc(-n3cc(CNC(=O)N4CCC(N[C@@H]5C[C@H](C)N(C(=O)CC)c6ccccc65)CC4)nn3)cc2)C[C@@H]1C (relative stereo) [Compound 10b, 4-(((2S*,4R*)-2-Methyl-1-propionyl-1,2,3,4-tetrahydroquinolin-4-yl)amino)-N-((1-(4-(((2S,4R)-2-methyl-1-propionyl-1,2,3,4-tetrahydroquinolin-4-yl)amino)phenyl)-1H-1,2,3-triazol-4-yl)methyl)piperidine-1-carboxamide] | 0.6 nM |
| CCC(=O)N1c2ccccc2[C@H](NCCCCCCCC(=O)Nc2ccc(N[C@@H]3C[C@H](C)N(C(=O)CC)c4ccccc43)cc2)C[C@@H]1C (relative stereo) [Compound 12h, 8-(((2S*,4R*)-2-Methyl-1-propionyl-1,2,3,4-tetrahydroquinolin-4-yl)amino)-N-(4-(((2S,4R)-2-methyl-1-propionyl-1,2,3,4-tetrahydroquinolin-4-yl)amino)phenyl)octanamide] | 3.92 nM |
| CCC(=O)N1c2ccccc2[C@H](Nc2ccc(CCCC(=O)Nc3ccc(N[C@@H]4C[C@H](C)N(C(=O)CC)c5ccccc54)cc3)cc2)C[C@@H]1C [Compound 5r, N,4-Bis(4-(((2S,4R)-2-methyl-1-propionyl-1,2,3,4-tetrahydroquinolin-4-yl)amino)phenyl)butanamide] | 1.78 nM |
